Source: patent US7704994B2, “Benzazepine derivatives for the treatment of neurological disorders” (Glaxo Group Limited, priority 2002, dated 2010)
Several values for one entry are separate records, joined by “and”; a condition that tells them apart may be missing. Identical values can stand only once. Like-named read-outs stand apart in the source and are kept apart here.

Biological target: T1, human histamine H3 receptor (Homo sapiens, UniProt Q9Y5N1)
T1 construct: expressed in transfected cells; host or cells: CHO K1 cells carrying pSwitch, transfected with pGeneH3 and induced with mifepristone; membranes of clone 3H3
Test: Histamine H3 functional antagonist assay
Assay type: biochemical
Protocol: A membrane preparation containing histamine H3 receptors may be prepared in accordance with the following procedures:
Ligated DNA was transformed into competent DH5α E. coli host bacterial cells and plated onto Luria Broth (LB) agar containing Zeocin™ (an antibiotic which allows the selection of cells expressing the sh ble gene which is present on pGene and pSwitch) at 50 μg ml^−1. Colonies containing the re-ligated plasmid were identified by restriction analysis. DNA for transfection into mammalian cells was prepared from 250 ml cultures of the host bacterium containing the pGeneH3 plasmid and isolated using a DNA preparation kit (Qiagen Midi-Prep) as per manufacturers guidelines (Qiagen).
CHO K1 cells previously transfected with the pSwitch regulatory plasmid (InVitrogen) were seeded at 2×10e6 cells per T75 flask in Complete Medium, containing Hams F12 (GIBCOBRL, Life Technologies) medium supplemented with 10% v/v dialysed foetal bovine serum, L-glutamine, and hygromycin (100 μg ml^−1), 24 hours prior to use. Plasmid DNA was transfected into the cells using Lipofectamine plus according to the manufacturers guidelines (InVitrogen). 48 hours post transfection cells were placed into complete medium supplemented with 500 μg ml^−1 Zeocin™.
10-14 days post selection 10 nM Mifepristone (InVitrogen), was added to the culture medium to induce the expression of the receptor. […] Approximately 1×10e7 cells were examined for receptor expression by staining with a rabbit polyclonal antibody, 4a, raised against the N-terminal domain of the histamine H3 receptor, incubated on ice for 60 minutes, followed by two washes in sorting medium. […] Following two further washes with Sorting Medium, cells were filtered through a 50 μm Filcon™ (BD Biosciences) and then analysed on a FACS Vantage SE Flow Cytometer fitted with an Automatic Cell Deposition Unit. […] Positively stained cells were sorted as single cells into 96-well plates, containing Complete Medium containing 500 μg ml^−1 Zeocin™ and allowed to expand before reanalysis for receptor expression via antibody and ligand binding studies.
All steps of the protocol are carried out at 4° C. and with pre-cooled reagents. […] The cells are then homogenised by 2×15 second bursts in a 1 litre glass Waring blender, followed by centrifugation at 500 g for 20 minutes. The supernatant is then spun at 48,000 g for 30 minutes. […]
The plate is then incubated on a shaker at room temperature for 30 minutes followed by centrifugation for 5 minutes at 1500 rpm. The plate is read between 3 and 6 hours after completion of centrifuge run in a Wallac Microbeta counter on a 1 minute normalised tritium count protocol. Data is analysed using a 4-parameter logistic equation. […]

[1] = membranes of CHO K1 cells expressing human histamine H3, [35S]GTPγS SPA, histamine 0.3 μM, read-out: antagonism (pKb) (converted)

T1 sequence (Q9Y5N1 whole entry): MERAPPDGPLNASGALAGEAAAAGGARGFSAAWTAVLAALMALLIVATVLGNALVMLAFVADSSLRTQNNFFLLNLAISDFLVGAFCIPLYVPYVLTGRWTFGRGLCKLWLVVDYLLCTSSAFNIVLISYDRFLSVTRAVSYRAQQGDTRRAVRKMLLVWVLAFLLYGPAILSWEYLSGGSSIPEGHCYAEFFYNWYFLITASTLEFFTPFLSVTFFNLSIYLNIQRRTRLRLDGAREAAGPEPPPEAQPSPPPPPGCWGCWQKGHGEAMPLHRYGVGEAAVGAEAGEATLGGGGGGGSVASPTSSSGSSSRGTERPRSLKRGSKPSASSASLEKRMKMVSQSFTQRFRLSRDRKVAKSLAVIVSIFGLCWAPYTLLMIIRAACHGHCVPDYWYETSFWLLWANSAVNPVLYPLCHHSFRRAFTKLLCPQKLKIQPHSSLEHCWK

| Kb [1] | SMILES | Kb [nM] |
| --- | --- | --- |
| – | c1ccc(COc2ccc3c(c2)CCN(C2CCC2)CC3)cc1 [Example 1, 7-Benzyloxy-3-cyclobutyl-2,3,4,5-tetrahydro-1H-benzo[d]azepine] | 0.0316 to 1 |
| 0.0316 to 1 nM | O=C(N1CCOCC1)N1CCC(Oc2ccc3c(c2)CCN(C2CCC2)CC3)CC1 [Example 52] | – |
| 0.0316 to 1 nM | O=C1CCCN1c1ccc(Oc2ccc3c(c2)CCN(C2CCC2)CC3)nc1 [Example 217, 1-{6-[(3-Cyclobutyl-2,3,4,5-tetrahydro-1H-3-benzazepin-7-yl)oxy]-3-pyridinyl}-2-pyrrolidinone] | – |
| 0.0316 to 1 nM and < 0.316 nM | CNC(=O)c1ccc(Oc2ccc3c(c2)CCN(C2CCC2)CC3)nc1 [Example 121, 6-(3-Cyclobutyl-2,3,4,5-tetrahydro-1H-benzo[d]azepin-7-yloxy)-N-methyl-nicotinamide] | – |
